Measured values taken from a melting point compilation (Tetko et al.; mined from patent text by program, amines drawn as free bases though some values may be those of a salt).

| SMILES | melting point [°C] |
| --- | --- |
| Cn1c(COc2ccc(CC3SC(=O)NC3=O)cc2)nc2ccc(Oc3ccc(O)cc3)cc21 (stereo unspecified) | 126 to 131 |
| CCCCCCCCCCCCCCCCCCNC(=O)OCC(CNS(=O)(=O)CCCI)Oc1ccon1 (stereo unspecified) | 69 to 71.5 |
| CN(C(=O)c1ccc2nonc2c1)C1CCCC(=O)C1 (stereo unspecified) | 164 to 165 |
| CN1CCN(C(=O)Nc2c(C(=O)c3ccccc3)[nH]c3cc(Cl)ccc23)CC1 | 168 to 170 |
| CCN(CC)C(=O)COc1nc(-c2ccccc2)cc2ccccc12 | 102 |
| NC(c1ccccc1)c1ccc(OCCCCOc2ccc(C(N)c3ccccc3)cc2)cc1 (stereo unspecified) | 120 to 123 |
| COc1cc2c(cc1Br)[C@@H](O)[C@H](Br)C(C)(C)O2 (relative stereo) | 58 to 59 |
| C[Si](C)(C)C#Cc1ccc(-n2c(-c3ccccc3)ccc2-c2ccccc2)cc1 | 183 to 184 |
| Nc1nc(SCc2ccccn2)nc(Cl)c1Br | 119 to 120 |
| CCOC(=O)C1OC1C(=O)NC(CC(C)C)C(OC)c1ccccc1 (stereo unspecified) | 108 to 109 |
| CC(C)c1ccc(-c2nc(-c3cccc(C(=O)O)c3)co2)cc1 | 187 to 189 |
| S=C1NC2(CCCCC2)NC12CCCCC2 | 229 |
| O=C(O)COCC(=O)CCCCCCCCCC(=O)NONC(=O)O | 64 to 67 |
| Cc1ccc(C(c2cc(C(C)(C)C)cc(C(C)(C)C)c2O)N(C)C)cc1C (stereo unspecified) | 82 to 85 |
| CCCCOc1c(CO)n(CC(C)(C)C)c(=O)c2ccc(F)cc12 | 143 to 144 |
| COc1ccc(S(=O)(=O)Nc2cccc3c2Nc2ccccc2CO3)cc1 | 154 to 155 |
| O=C1C(CCO)Oc2ccccc2N1Cc1cccc([N+](=O)[O-])c1 (stereo unspecified) | 128 to 130 |
| CCOC(=O)Cc1cc(F)ccc1-c1ccccc1 | 60.5 |
| NC(=O)CCCOc1cccc(-c2n[nH]c3c2Cc2ccccc2-3)c1 | 200 to 202 |
| COc1cc(Cc2sc3ccccc3c2S(=O)(=O)Nc2onc(C)c2Br)cc(OC)c1OC | 154 to 156 |
| COc1ccc(NC(=O)NC/C=C2\CCCc3ccc(OC)cc32)cc1 | 168 to 170 |
| Cc1nn(-c2ccc(C(=O)O)cc2)c(O)c1-c1c(C)nn(-c2ccc(C(=O)O)cc2)c1O | > 280 |
| CCOC(=O)Cc1csc(NC(N)=O)n1 | 173 to 174 |
| C[C@@H](n1ccnn1)[C@](O)(Cn1ccnc1)c1ccc(F)cc1F | 150 to 151 |
| CC(C)(C)c1nc(-c2ccc3ccccc3c2)c(-c2ccncc2)[nH]1 | 218 to 220 |
| CN(C)C(=O)C(C)(C)n1ccc(-c2ccccc2)n1 | 99.5 to 102 |

| SMILES | melting point [°C] |
| --- | --- |
| Cc1cccc(-c2nc3cccnn3c2-c2ccnc(NC(=O)c3cccc(F)c3)c2)c1 | 204 to 205 |
| COc1ccc2c(c1)OCC(n1ccnc1)C2=O (stereo unspecified) | 151 to 155 |
| CS(=O)(=O)c1ccc(-c2cc(CO)nn2-c2ccc(Cl)cc2)cc1 | 96 to 100 |
| CC(=O)Nc1c(C)cc(F)cc1[N+](=O)[O-] | 167 to 172 |
| COc1ccc(CCN(CCC2CCCCC2)C(=O)CCCCC(N)=O)cc1OC | 158 to 160 |
| O=C(C[C@@H](CCCC1CCCCC1)c1nc(CN2CCOCC2)co1)NO | 117 to 119 |
| Cc1nc(-n2ccnc(C)c2=O)sc1C(=O)NCc1ccccc1 | 186 to 187 |
| CCCNCCc1c[nH]c2ccc(NC(N)=O)cc12 | 146 to 147 |
| COC(=O)c1cc2cccnc2cc1C(=O)OC | 101 to 102 |
| CCCc1ccc(-c2cnc(C#N)c(C#N)n2)cc1 | 87 to 87.9 |
| CC(=O)OC1CSC(Oc2cncc(-c3ccoc3)c2)C(OC(C)=O)C1OC(C)=O (stereo unspecified) | 127 |
| Fc1ccc(Nc2nnc(Cc3ccncc3)c3ccccc23)cc1 | 129 to 131 |
| C=CCOc1cc(NC(C)=O)c(Cl)cc1C(=O)OC | 110 to 112 |
| Cc1ccc2c(Cl)cc(Cl)c(OCC#N)c2n1 | 157 to 158 |
| O=C(Cc1ccccc1)NCC(=O)c1ccccc1 | 66 to 77 |
| CC(C)Cc1nc2ccc(Br)cc2c(-c2ccccc2)c1CN | 129 to 130 |
| CCCCn1nc(SCCCCCC(=O)O)c(C(=O)O)c1Cc1cc2c(cc1Cl)OCO2 | 70 |
| COc1cc(C(=O)c2sc(NC(=O)c3ccncc3)nc2-c2ccco2)ccn1 | 237 to 239 |
| CCC(SCC(=O)O)c1cc2c(cc1C)OCO2 (stereo unspecified) | 98 to 99 |
| C[C@]12CCC(=O)N[C@@H]1CCc1cc(Sc3cccc(Cl)c3)ccc12 | 186 to 187 |
| COc1cc2nc(N3CCN(c4nc5ccccc5[nH]4)CC3)nc(N)c2cc1OC | > 250 |
| Cc1ccc2c(c1C)OC(C)C(NNc1ncnc3c1ncn3C1OC(CO)C(O)C1O)C2 (stereo unspecified) | 109 to 113 |
| Cc1noc(C)c1C(=O)N1CCC2(CC1)CSC1=C(O2)c2ccccc2C(=O)C1=O | 274 to 275 |
| OC1(CC2CO2)c2ccccc2CCc2ccccc21 (stereo unspecified) | 116 to 118 |
| COCC(=O)Nc1ccc2ncnc(Nc3cccc(Cl)c3)c2c1 | 177 to 180 |
| CS(=O)(=O)N1Cc2nc3c(N)nc4ccccc4c3n2CC(O)C1 (stereo unspecified) | 282 to 283 |

| SMILES | melting point [°C] |
| --- | --- |
| CCOP(=O)(/C=C/c1cn(-c2ccccc2)nc1OCc1ccc(OCc2nc(-c3ccc(C)c(C(=O)OC)c3)oc2C)c(OC)c1)OCC | 121 to 122 |
| CCCCN(C(=O)c1ccccc1)C(=NC(=O)c1ccccc1)Nc1ccc(C(N)=O)cc1 | 90 to 92 |
| COCCOc1cc2ncc(C#N)c(Cl)c2cc1O | 174 to 175 |
| Ic1nnnn1Cc1ccccc1 | 122 |
| OC1CSC(Oc2ccc(-c3cncnc3)nc2)C(O)C1O (stereo unspecified) | 188 |
| Cc1cccc(C(=O)Nc2cn(C3CCCCO3)nc2C(=O)NCCC#N)n1 (stereo unspecified) | 186 to 187 |
| O=c1c2cc(F)ccc2nc(CNc2ncccn2)n1-c1ccccc1Cl | 182 to 185 |
| CCCC12CCC(=O)C=C1c1c(cc(OC)c(Cl)c1Cl)C2Br (stereo unspecified) | 132 to 134 |
| CC1(C#CC2(C(F)(F)F)C=NC(=O)Nc3ccc(Cl)cc32)CC1 (stereo unspecified) | 196 to 198 |
| CNC(=O)CCc1nc(-c2ccc(Cl)cc2)co1 | 169 to 170 |
| Cc1cc(=O)c(OCc2ccccc2)c(C(=O)NC2CCC2)o1 | 69.3 to 71 |
| COC(=O)[C@@H]1C[C@H](OC(=O)C(C)C)C(=O)[C@H]2[C@@]1(C)CC[C@H]1C(=O)O[C@H](c3ccoc3)C[C@]21C | 155 to 157 |
| COC(CCOS(=O)(=O)c1ccc(C)cc1)CCOS(=O)(=O)c1ccc(C)cc1 | 58 |
| Cc1c(Cc2ccc(Cl)cc2)c(=O)oc2cc(O)cc(O)c12 | 270 to 278 |
| CCCCC1c2sccc2CCN1CCCOc1ccc([N+](=O)[O-])cc1 (stereo unspecified) | 72 to 75 |
| COc1cc(CC(=O)NCCOCc2ccc(C)c(C)c2)ccc1O | 82 to 83 |
| Cc1nc2c(OCc3c(Cl)ccc(S(=O)(=O)N4CCC[C@H]4C(=O)NCc4ccc(C=NN)cc4)c3Cl)cccn2c1Br | 124 |
| COc1ccc(C2CN(C)Cc3c(N)cccc32)cc1OC (stereo unspecified) | 143 to 144 |
| O=C1CN(c2ccccc2)C(=O)C1c1ccccc1 (stereo unspecified) | 285 to 287 |
| CC(=O)OCN=C(O)c1cc(C(O)=NCOC(C)=O)c(C(=O)O)cc1C(=O)O | 237 to 238 |
| CCCc1c(OCc2ccc(/C=C3\SC(=S)NC3=O)cc2)ccc(C(=O)c2ccccc2)c1O | 229 to 230 |
| N#Cc1ccc(N2CCN(Cc3cnc4c(c3)NC(=O)[C@@H]3CCCN43)CC2)cc1 | 252 |
| CNc1nc(N)nc(OCC(F)(F)F)n1 | 204 to 205 |
| CS(=O)(=O)c1ccc(-c2nn(CCCc3ccccc3)c(=O)cc2-c2ccc(Cl)cc2)cc1 | 70.2 to 71.6 |
| COc1ccc2sc(C(N)=O)c(SC)c2c1 | 171 to 173 |
| COC(=O)c1cc(N2CCN([C@H]3CC[C@@H](c4cn(C)c5ccc(C#N)cc54)CC3)CC2)c2ncccc2c1 | 153 to 155 |

| SMILES | melting point [°C] |
| --- | --- |
| ON=Cc1cc(-c2ccc(O)cc2)c2occc2c1 | 192 to 194 |
| N=C(N)c1ccc(C(=O)Nc2ccc(Nc3cc(-c4cccc5c4oc4ccccc45)ncn3)cc2)cc1 | 213 to 219 |
| COCCc1ccc(-c2ccc(I)cc2)cc1 | 97 to 99.4 |
| Cc1nc2c(N)nc3ccccc3c2n1CCCCCNC(=O)c1ccccc1 | 110 to 120 |
| Cc1ccc(C(=O)n2c(C)c(C(C)C(=O)O)c3cc4c(cc32)OCO4)cc1 (stereo unspecified) | 172 to 175 |
| CC(C)(CCn1cnc(-c2ccccc2)c1)NCC(O)c1ccc(O)c(NS(C)(=O)=O)c1 (stereo unspecified) | 133 to 136 |
| N#Cc1ccc(C=Cc2ccccc2)cc1 | 119 |
| O=C1CCCN1C(=O)NCCn1cccn1 | 62.5 to 63.5 |
| CCS(CCO)=NS(=O)(=O)c1ccccc1 (stereo unspecified) | 75 to 76.5 |
| Cc1nc(Cl)c([N+](=O)[O-])c(N2CCc3ccccc3CC2)n1 | 161 to 165 |
| O=C1C=CC(=Cc2cccs2)O1 | 100 to 102 |
| O=c1c2c(O)cccc2[nH]c2c([N+](=O)[O-])ccc(Cl)c12 | 265 to 267 |
| CCCCCCC1=CC(O)(C(Br)Br)N(CCCC)C1=O (stereo unspecified) | 85 to 86 |
| CC(=O)N1CCC1CC(=O)O (stereo unspecified) | 148 to 150 |
| CN1C(C(=O)Nc2ccccn2)=C(OC2OC(=O)c3ccccc32)c2ccccc2S1(=O)=O (stereo unspecified) | 151 to 152 |
| CC(N)Oc1cccc2c1ccn2S(=O)(=O)c1ccccc1F (stereo unspecified) | 147 to 150 |
| c1csc(-c2nc3cc(COc4ccc(CCCn5ccnc5)cc4)ccc3o2)c1 | 130 to 131 |
| COC(=O)C#Cc1c(C#N)nn(-c2c(Cl)cc(C(F)(F)F)cc2Cl)c1N | 201 to 202 |
| COC(=O)Nc1nc2cc(C(c3cccc(Cl)c3)n3ccnc3)ccc2[nH]1 (stereo unspecified) | 168 |
| CCOC(=O)c1oc(-c2ccccc2)cc(=O)c1Cl | 121 |
| COCCNC(=O)c1nc(C)c2cc(Cc3ccc(F)cc3)cnc2c1OCc1ccccc1 | 167 to 168 |
| CC(C)(C)OC(=O)NCC(=O)N1[C@@H](C(=O)OC(C)(C)C)CC[C@H]1c1ccccc1 (racemic) | 112 |
| O=c1nc(CN2CCC[C@H](OCc3cc(Cl)cc(Cl)c3)[C@@H]2c2ccccc2)[nH][nH]1 | > 220 |
